From ChEMBL document CHEMBL1153653, “Imidazo[4,5-b]pyridine-based AT1 / AT2 angiotensin II receptor antagonists” (Bioorg Med Chem Lett, 1994)

How the values were obtained:
[1] = biological target: T1, Type-1 angiotensin II receptor (Oryctolagus cuniculus, UniProt P34976); assay: In vitro binding affinity determined by its ability to displace the specific binding ligand [125I]-Sar1, Ile8-AII from Angiotensin II receptor, type 1 in rabbit aorta membranes; format: cell membranes, Membrane
T1 sequence (P34976 whole entry): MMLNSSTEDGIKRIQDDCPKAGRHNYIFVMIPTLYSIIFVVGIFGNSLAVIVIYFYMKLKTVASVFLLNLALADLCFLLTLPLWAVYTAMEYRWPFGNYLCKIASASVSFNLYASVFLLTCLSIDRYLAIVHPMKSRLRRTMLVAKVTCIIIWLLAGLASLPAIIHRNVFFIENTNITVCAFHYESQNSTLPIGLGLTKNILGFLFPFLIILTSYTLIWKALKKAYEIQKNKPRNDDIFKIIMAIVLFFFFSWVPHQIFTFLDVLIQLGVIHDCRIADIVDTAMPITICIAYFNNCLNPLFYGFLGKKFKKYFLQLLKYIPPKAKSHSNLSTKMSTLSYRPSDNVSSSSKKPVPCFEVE

[2] = biological target: T2, Type-2 angiotensin II receptor (Rattus norvegicus, UniProt P35351); assay: In vitro binding affinity determined by its ability to displace the specific binding ligand [125I]-Sar1, Ile8-AII from AT2 receptor in rat midbrain membranes; format: cell membranes, Membrane
T2 sequence (P35351 whole entry): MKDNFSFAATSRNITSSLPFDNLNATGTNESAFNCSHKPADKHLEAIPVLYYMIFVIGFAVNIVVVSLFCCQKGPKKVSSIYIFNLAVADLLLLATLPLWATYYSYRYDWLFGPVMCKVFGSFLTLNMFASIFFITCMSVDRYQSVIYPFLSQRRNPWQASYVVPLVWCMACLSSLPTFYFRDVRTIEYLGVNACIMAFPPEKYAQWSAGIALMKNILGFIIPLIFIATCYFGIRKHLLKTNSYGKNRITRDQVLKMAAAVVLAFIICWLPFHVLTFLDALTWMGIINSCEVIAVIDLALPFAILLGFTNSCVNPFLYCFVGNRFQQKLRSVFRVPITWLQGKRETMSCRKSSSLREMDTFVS

Canis familiaris [3] = assay: Inhibitory activity against AII-induced pressor responses in Beagle dogs at a dose of 0.3 upon iv administration at duration of >6 hr; format: functional, Canis lupus familiaris
[4] = biological target: Angiotensin II receptor (Homo sapiens) (UniProt P30556+P50052); assay: Ratio of IC50 of AT2/AT1 receptors; format: protein assay
Rattus norvegicus [5] = assay: Inhibitory activity against AII-induced pressor responses in rats at a dose of 0.3 upon iv administration at duration of >6 hr; format: functional
Rattus norvegicus [6] = assay: Effective dose in rat after intravenous administration; Range is (0.12 - 0.15); format: functional
Canis familiaris [7] = assay: Effective dose in Beagle dog after peroral administration; Range is (0.52 - 0.64); format: functional; conditions: Canis lupus familiaris, po
Rattus norvegicus [8] = assay: Effective dose in rat after peroral administration; Range is (0.25 - 0.31); format: functional; conditions: po
Canis familiaris [9] = assay: Inhibitory activity against AII-induced pressor responses in Beagle dogs at a dose of 1.0 upon po administration at duration of >6 hr; format: functional, Canis lupus familiaris
Rattus norvegicus [10] = assay: Inhibitory activity against AII-induced pressor responses in rats at a dose of 0.3 upon po administration at duration of >6 hr; format: functional
Canis familiaris [11] = assay: Effective dose in Beagle dog after intravenous administration; Range is (0.025 - 0.029); format: functional; conditions: Canis lupus familiaris
Rattus norvegicus [12] = assay: Inhibition on AII-induced pressor responses in rats at a dose of 0.3 upon po administration at duration of >6 hr; format: functional
Rattus norvegicus [13] = assay: Effective dose in rat after intravenous administration; Range is (0.062 - 0.076); format: functional
Rattus norvegicus [14] = assay: Effective dose in rat after peroral administration; Range is (0.001 - 0.167); format: functional; conditions: po
Rattus norvegicus [15] = assay: Inhibition on AII-induced pressor responses in rats at a dose of 0.3 upon iv administration at duration of >6 hr; format: functional
Canis familiaris [16] = assay: Inhibition on AII-induced pressor responses in Beagle dogs at a dose of 0.3 upon iv administration at duration of >6 hr; format: functional, Canis lupus familiaris

IC50 [1]	IC50 [2]	SMILES	also measured
0.6 nM	510 nM	CCCCc1nc2cc(NC(=O)N(c3ccccc3)c3ccccc3)c(C)nc2n1Cc1ccc(-c2ccccc2-c2nn[nH]n2)cc1	–
0.1 nM	33 nM	CCc1nc2c(C)cc(C)nc2n1Cc1ccc(-c2ccccc2S(=O)(=O)NC(=O)CCC2CCCC2)cc1	–
0.37 nM	2.7 nM	CCCCCC(=O)NS(=O)(=O)c1ccccc1-c1ccc(Cn2c(CCCC)nc3cc(NC(=O)CCCC)cnc32)cc1	–
0.51 nM	5.6 nM	CCCCOC(=O)NS(=O)(=O)c1ccccc1-c1ccc(Cn2c(CCC)nc3c(C)c(NC(=O)CCC)cnc32)cc1	–
0.33 nM	0.94 nM	CCCC(=O)Nc1cnc2c(nc(CCC)n2Cc2ccc(-c3ccccc3S(=O)(=O)NC(=O)OCc3ccccc3)cc2)c1C	Max inhibition (Canis familiaris [3]): 100%; Ratio [4]: 2.8; Max inhibition (Rattus norvegicus [5]): 85%; ED50 (Rattus norvegicus [6]): 0.13 mg/kg; ED50 (Canis familiaris [7]): 0.58 mg/kg; ED50 (Rattus norvegicus [8]): 0.28 mg/kg; Max inhibition (Canis familiaris [9]): 76%; Max inhibition (Rattus norvegicus [10]): 58%; ED50 (Canis familiaris [11]): 0.027 mg/kg
–	> 10000 nM	CCc1nc2c(C)cc(C)nc2n1Cc1ccc(-c2ccccc2-c2nnn[nH]2)cc1 [L-158809]	–
1 nM	–	CCCCCN(C(=O)c1ccccc1)c1ccc2nc(CCC)n(Cc3ccc(-c4ccccc4-c4nn[nH]n4)cc3)c(=O)c2c1	–
0.1 nM	0.31 nM	CCCCC(=O)Nc1cc2nc(CCCC)n(Cc3ccc(-c4ccccc4S(=O)(=O)NC(=O)CCC4CCCC4)cc3)c2nc1C	–
0.26 nM	0.25 nM	CCCC(=O)Nc1c(C)nc2c(nc(CCC)n2Cc2ccc(-c3ccccc3S(=O)(=O)NC(=O)CCC3CCCC3)cc2)c1C	–
–	–	CCCCOC(=O)NS(=O)(=O)c1ccccc1-c1ccc(Cn2c(CCCC)nc3cc(NC(=O)CCCC)c(C)nc32)cc1	Max inhibition (Rattus norvegicus [12]): 86%; ED50 (Rattus norvegicus [13]): 0.069 mg/kg; ED50 (Rattus norvegicus [14]): 0.014 mg/kg; Max inhibition (Rattus norvegicus [15]): 82%; Max inhibition (Canis familiaris [16]): 100%
